{"source": "a melting point compilation (Tetko et al.; mined from patent text by program, amines drawn as free bases though some values may be those of a salt)"}
{"units": {"melting point": "°C"}}
{"smiles": "COC(=O)c1ccc(-c2ccc3cc(OCCCCC=C=O)c(C45CC6CC(CC(C6)C4)C5)cc3c2)cc1", "melting point": "209 to 210"}
{"smiles": "O=C1C(=CO)C(c2ccc(Cl)cc2Cl)c2c(Cl)cc(Cl)cc21", "note": "(stereo not given)", "melting point": "189 to 191"}
{"smiles": "CN(O)C(=O)Nc1c(C(=O)c2ccccc2)[nH]c2cc(Cl)ccc12", "melting point": "208 to 214"}
{"smiles": "O=C(CCCCOc1ccc(O)cc1)C(F)(F)F", "melting point": "63 to 64"}
{"smiles": "O=C1NC(=O)C(N(Cc2ccc(Br)cc2)c2ccc(CCNCC(O)COc3ccccc3)cc2)S1", "note": "(stereo not given)", "melting point": "52 to 54"}
{"smiles": "CC(C)(C)OC(=O)N1CCC(C2=C(C#N)C(c3ccccc3Cl)c3c[nH]nc3N2)CC1", "note": "(stereo not given)", "melting point": "> 280"}
{"smiles": "COc1ccc2c(Cc3c(Cl)cncc3Cl)nnc(-c3nccs3)c2c1", "melting point": "225 to 230"}
{"smiles": "Cc1nnc(SCC(=O)C23CC4CC(CC(C4)C2)C3)n1C", "melting point": "113 to 114"}
{"smiles": "CO/C=C(/C(=O)OC)c1ccccc1Oc1nc(Cl)nc(Oc2ccccc2)n1", "melting point": "103 to 104"}
{"smiles": "CNC(=O)c1cccc(NC(=O)Cc2cccc3ccccc23)c1", "melting point": "201 to 202"}
{"smiles": "CN(c1ccc(Cl)cc1)c1ncnc2cc(Cl)ccc12", "melting point": "129 to 131"}
{"smiles": "CN1C(=O)C(C)(C)C(=O)N(C)c2ccccc21", "melting point": "159 to 160"}
{"smiles": "CS(=O)(=O)N1CCC(Nc2ncc(C(=O)c3ccccc3)c(N)n2)CC1", "melting point": "249 to 250"}
{"smiles": "CCN1c2ncc(CCc3ccc(C(=O)OC)cc3)cc2C(=O)N(C)c2cccnc21", "melting point": "172 to 173"}
{"smiles": "CC(C)N1CCc2ccc(NC(=N)c3cccs3)cc2C1", "melting point": "110 to 111"}
{"smiles": "COCCOc1ccc(C=O)c(Oc2ncc(C(F)(F)F)cc2Cl)c1", "melting point": "80.5 to 81"}
{"smiles": "COCCOc1ccc(/C=C/C(=O)NS(=O)(=O)c2ccc(C(F)(F)F)cc2)c(Oc2ncc(C(F)(F)F)cc2Cl)c1", "melting point": 186}
{"smiles": "OCC12CC3CC(CC(C3)C1Br)C2", "note": "(stereo not given)", "melting point": 138}
{"smiles": "Brc1ccc(-c2c(-c3ccccc3)c(-c3ccccc3)c(-c3ccccc3)c(-c3ccccc3)c2-c2ccc(Br)cc2)cc1", "melting point": 245}
{"smiles": "COc1ccc(-c2nc3sccn3c2/C=C/C(=O)c2cc(OC)c(OC)c(OC)c2)cc1", "melting point": "177 to 179"}
{"smiles": "O=C1C(c2ccccc2)=C(c2ccccc2)C(=O)N1Cc1ccc(F)cc1", "melting point": "124 to 125"}
{"smiles": "CCN(CC)c1ccc(N=Nc2ccc(OCCOC)c(S(=O)(=O)Cl)c2)cc1", "melting point": "103 to 104"}
{"smiles": "Cc1cccc(CC(Nc2ccccc2)C(=O)NC(C#N)COCc2cccc(C(=O)O)c2)c1", "note": "(stereo not given)", "melting point": "135 to 137"}
{"smiles": "CC(=O)N1CC(=O)C2=C(C1)CN1NC(N3CCOCC3)=NC1=N2", "melting point": "310 to 313"}
{"smiles": "Nc1cc(C(F)(F)F)c(Br)cc1S(=O)(=O)c1ccccc1", "melting point": "169 to 171"}
{"smiles": "CCOC(=O)CCCCC(NS(=O)(=O)c1ccc(F)cc1)c1ccc2ccccc2c1", "note": "(stereo not given)", "melting point": "91 to 93"}
{"smiles": "COC(=O)c1nc(-c2csc3ccc(C)cc23)nc(N)c1Cl", "melting point": "164 to 165"}
{"smiles": "Cc1ccc(Oc2nc3ccccc3o2)c(=S)n1C", "melting point": "245 to 247"}
{"smiles": "CCOc1ccc(C2(c3ccc(OC)cc3)CC2(Cl)Cl)cc1", "note": "(stereo not given)", "melting point": "114 to 117"}
{"smiles": "CC(=O)Cn1cnc2c1c(=O)n(CC1CC1)c(=O)n2Cc1ccccc1", "melting point": 138}
{"smiles": "NC(=O)c1ccc(F)nc1N", "melting point": "198 to 200"}
{"smiles": "CCN(CC)CCCCOc1ccc(-c2nnc(CSCCOc3ccccc3)o2)cc1", "melting point": "35 to 38"}
{"smiles": "O=C1CC(=O)N(Cc2ccccc2)[C@H](Cc2ccccc2)C1", "melting point": "97 to 97.5"}
{"smiles": "O=C1N(Cc2ccc(-c3ccccn3)cc2)c2ccccc2C12COc1cc3c(cc12)CCO3", "note": "(stereo not given)", "melting point": "217 to 219"}
{"smiles": "Cc1nc(N2CCC(NCc3ccc(F)cc3)C2=O)sc1C(=O)NCc1ccc(F)cc1", "note": "(stereo not given)", "melting point": "123 to 124"}
{"smiles": "CCC(C(=O)NC)n1nnc2ccccc21", "note": "(stereo not given)", "melting point": "136 to 137"}
{"smiles": "CCOC(=O)CC1CCc2c(sc3c(Cl)cccc23)C1", "note": "(stereo not given)", "melting point": "51 to 53"}
{"smiles": "OCc1c(OCc2ccccc2)ccc2c1CC[C@@H](NC1CCC1)[C@@H]2O", "note": "(relative stereo)", "melting point": "156 to 158"}
{"smiles": "CO/N=C(\\C(=O)OCCSc1nc2ccccc2s1)c1csc(NC=O)n1", "melting point": "172 to 173"}
{"smiles": "O=C1C(=Cc2ccsc2)CCc2cc(OCCn3ccnc3)ccc21", "melting point": "61 to 62"}
{"smiles": "O=C1CCCN1Cc1ccc(F)cc1", "melting point": "37 to 38"}
{"smiles": "COc1ccc(-c2nnc(Cl)nc2-c2ccc(OC)cc2)cc1", "melting point": "130 to 132"}
{"smiles": "CCCCCCCCCCCCCCCCNc1ccc(C(=O)O)cc1", "melting point": "104 to 107"}
{"smiles": "CC(C)N(C1CCCCC1)S(=O)(=O)N[C@@H](Cc1ccc(Nc2nccc3cnccc23)cc1)C(=O)O", "melting point": 162}
{"smiles": "CCCN(c1ccncn1)n1cc(C)c2ccccc21", "melting point": "74 to 76"}
{"smiles": "O=C1NC(=O)c2c1c(-c1ccccc1)cc1c2c2cc(O)ccc2n1CCCCCCBr", "melting point": "214 to 216"}
{"smiles": "O=C(O)CCc1conc1-c1ccc(Cl)cc1", "melting point": "149 to 150"}
{"smiles": "CCOC(=O)c1ccc(OCCOC)c(OC)c1", "melting point": "57 to 60"}
{"smiles": "COc1ccc(-c2c3c(cc4ccc(O)cc24)-c2ccc(O)cc2CO3)cc1OC", "melting point": "245 to 248"}
{"smiles": "CC1(C)CC(=O)c2c(nc(Cc3ccc(Cl)cc3)c3[nH]c4ccccc4c23)C1", "melting point": "205 to 207"}
{"smiles": "Nc1nc2ccccc2c2c1ncn2CCCCNC(=O)CCc1ccccc1", "melting point": "148 to 150"}
{"smiles": "COc1cc(C=CC(=O)Nc2cnc3c(C)cc(C)cc3c2-c2ccc(F)cc2)cc(OC)c1OC(C)=O", "melting point": "260 to 261"}
{"smiles": "Cc1cn(CC(=O)c2ccc(-c3ccc(N4C[C@H](Cn5ccnn5)OC4=O)cc3F)cn2)c(C)n1", "melting point": 78}
{"smiles": "NC(=O)c1cccc2[nH]c(-c3ccc(O)cc3)nc12", "melting point": "266 to 267"}
{"smiles": "O=C(O)CCC1OC(=O)C(O)=C1c1ccccc1", "note": "(stereo not given)", "melting point": "177 to 179"}
{"smiles": "CC(=O)c1ccc(-c2ccc(N(Cc3ccccc3)Cc3ccccc3)cc2)c(C)c1", "melting point": "145 to 146"}
{"smiles": "CC(C)(C)C(NC(=O)c1cccc2c1-c1ccccc1C2=O)Nc1c(Nc2cccnc2)c(=O)c1=O", "note": "(stereo not given)", "melting point": "201 to 202"}
{"smiles": "Nc1ccc(N2CCC(N3CCOCC3)CC2)c(C(F)(F)F)c1", "melting point": "118 to 120"}
{"smiles": "COC(=O)c1c2ccccc2nc2ccc(Cl)cc12", "melting point": 130}
{"smiles": "C[Si](C)(C)c1ccc(NC(=O)CCCC=C(F)F)cc1", "melting point": "50 to 51"}
{"smiles": "Cc1ccc(N(C)S(=O)(=O)c2cccs2)c2[nH]c(C3=NCC(C#N)S3)cc12", "note": "(stereo not given)", "melting point": "173 to 174"}
{"smiles": "N#Cc1ccc(OCC(F)(F)C(F)(F)C(F)(F)C(F)(F)COc2ccc([N+](=O)[O-])cc2[N+](=O)[O-])cc1", "melting point": "89 to 90.6"}
{"smiles": "Cc1cc([N+](=O)[O-])ccc1NCCNC(N)=O", "melting point": 186}
{"smiles": "c1ccc(-c2ncc(-c3cnc(C4CCCNC4)[nH]3)cn2)cc1", "note": "(stereo not given)", "melting point": 140}
{"smiles": "O=C1NC(=S)NC1=Cc1cc(O)c(O)c(Cl)c1", "melting point": "303 to 304"}
{"smiles": "O=c1c(-c2ccccc2Cl)cc2cnc(NC3C4CN(Cc5ccccc5)CC43)nc2n1C1CCNC1", "note": "(stereo not given)", "melting point": "203 to 206"}
{"smiles": "CCS(=O)(=O)CC=Cc1ccccc1", "melting point": 100}
{"smiles": "O=C(O)c1ccc(-c2nc3ccccc3s2)cc1", "melting point": "294 to 296"}
{"smiles": "Nc1cc(-n2cncn2)ccc1[N+](=O)[O-]", "melting point": "259 to 261"}
{"smiles": "CC(C)n1c(S(=O)(=O)c2ccc(O)cc2)nc2ccccc21", "melting point": 198}
{"smiles": "CC1=C(c2ccncc2)C(C)CC(=O)N1", "note": "(stereo not given)", "melting point": "184 to 186"}
{"smiles": "CC(=O)CCS(=O)(=O)c1ccc(C=C(C)c2ccc3c(c2)C(C)(C)CCC3(C)C)cc1", "melting point": "135 to 136"}
{"smiles": "COC=C1CCC(c2ccc(C(=O)OC)cc2)CC1", "note": "(stereo not given)", "melting point": 58}
{"smiles": "CNCC1Cc2cc(-c3ccccc3)cc(-c3ccc(OC)cc3)c2O1", "note": "(stereo not given)", "melting point": "> 250"}
{"smiles": "COc1cc2c(cc1OC)-c1c(-c3nc(-c4ccccc4)no3)c(-c3cc(C)c(O)c(C)c3)c(C)n1C(C)C2", "note": "(racemic)", "melting point": "203 to 206"}
{"smiles": "CNC(=S)NCCCCCC1CCSS1", "note": "(stereo not given)", "melting point": "64 to 65"}
{"smiles": "Cc1cc([N+](=O)[O-])ccc1N=C1C2CC3CC(C2)CC(C3)N1C1CCCC1", "melting point": "149 to 152"}
{"smiles": "CN(CCOc1ccc(NS(C)(=O)=O)cc1)CCc1ccc(N)cc1", "melting point": "155 to 157"}
{"smiles": "COc1ccc(-c2ccccc2)cc1NC(=O)c1ncc[nH]1", "melting point": 276}
{"smiles": "CCNc1cc(OC)c(C(F)(F)F)cc1[N+](=O)[O-]", "melting point": "140 to 142"}
{"smiles": "CN(C)CC(=O)N1c2ccccc2N(C)S(=O)(=O)c2ccc(C(F)(F)F)cc21", "melting point": "156 to 157"}
{"smiles": "CCOC(=O)CNc1nc(Cl)ccc1[N+](=O)[O-]", "melting point": "77.5 to 80"}
{"smiles": "c1ccc(-c2csc(CN3CCN(c4ccccc4)CC3)n2)cc1", "melting point": "142 to 143"}
{"smiles": "Nc1ncnc2c1ncn2Cc1oc2ccccc2c(=O)c1-c1ccc(F)cc1", "melting point": "212 to 216"}
{"smiles": "COC(=O)c1ccc(-c2nc(-c3cc(C)sc3C)cs2)cc1", "melting point": "109 to 110"}
{"smiles": "CCOC(=O)c1ccc(C(F)(F)F)cc1SC", "melting point": "44 to 45"}
{"smiles": "Cc1ccc(C(=O)C2=C(O)C(=O)N(c3ccc(C(F)(F)F)cn3)C2c2ccc(C(C)C)cc2)cc1", "note": "(stereo not given)", "melting point": "255 to 257"}
{"smiles": "Cc1c(-c2ccc(C(F)(F)F)cc2)n(Cc2ccc(OCCBr)cc2)c2ccc(OCc3ccccc3)cc12", "melting point": "106 to 109"}
{"smiles": "O=C(N[C@H]1CC[C@H](CCN2CCC(c3cccc4c3CCO4)CC2)CC1)C1(O)CC1", "melting point": 164}
{"smiles": "CCC(C)(CC(=O)Nc1cccc(OCc2ccc3ccc(F)cc3n2)c1)C(=O)O", "note": "(stereo not given)", "melting point": "179 to 180"}
{"smiles": "O=C(O)c1cc(OCCCc2cc(-c3ccc(C(F)(F)F)cc3)no2)nn1-c1ccccc1", "melting point": "145 to 146"}
{"smiles": "O=C(OCc1ccc([N+](=O)[O-])cc1)N1CCC(O)CC1", "melting point": "91.5 to 94"}
{"smiles": "O=C1Nc2ccccc2N(C(=O)N2CCCC(CCN3CCCCCC3)C2)c2ncccc21", "note": "(stereo not given)", "melting point": "152 to 154"}
{"smiles": "Oc1c(C2CCCC2)cc(C2CCCC2)cc1C1CCCC1", "melting point": 104}
{"smiles": "O=c1[nH]c2cc(Cl)c(Cl)c([N+](=O)[O-])c2[nH]c1=O", "melting point": "347 to 348"}
{"smiles": "COc1ccccc1NC(=O)Nc1nc(N2CCOCC2)nc(N(CCC(=O)O)Cc2cccc(C)c2)n1", "melting point": "101 to 102"}
{"smiles": "c1cnc2nc(-c3nccs3)ccc2c1", "melting point": "160 to 165"}
{"smiles": "Nc1nc2c(ncn2COCCO)c(=S)[nH]1", "melting point": "251 to 254"}
{"smiles": "COc1ccc(C2(CCC(=O)O)SCCCS2)cc1OC", "melting point": "134 to 135"}
{"smiles": "COc1cc(OC)nc(Oc2ccc(N(C)C)nc2C(=O)O)n1", "melting point": "195 to 198"}
